# Measurements: article PMC11443414 (RSC Advances, 2024)
# Where a name gives a salt, the structure may show the parent alone.
# Key:
# [1] = target: T1, urease subunit gamma (UreA) (Staphylococcus aureus, UniProt Q6GEE6); experiment: DSF titration; format: binding
# T1 sequence (Q6GEE6 1-100): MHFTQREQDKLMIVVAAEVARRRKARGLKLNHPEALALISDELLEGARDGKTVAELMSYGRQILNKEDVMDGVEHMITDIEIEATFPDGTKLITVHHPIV
# [2] = target: T1, urease subunit gamma (UreA); format: binding
Structure (SMILES),Kd [1] [mM],"STD-NMR (individual, group epitope mapping); DSF Tm shift [2]"
"O=C(O)c1cccnc1 [compound 11, Nicotinic acid]",70,–
"CCOc1ccc(/C=C2\NCCc3cc(OCC)c(OCC)cc32)cc1OCC [compound 2, Drotaverine HCl]",–,Its GEM analysis indicated that CH2-18 received the highest saturation from the protein.
